These results are taken from patent EP0047620A1, “Aryl diazabicyclyl amides, a process for their preparation and use” (BEECHAM GROUP PLC, priority 1980, dated 1982).

For experiment [1], the system named is rat. Put plainly: Increase in intragastric pressure in the rat. Format: in vivo. Particulars: conscious restrained rats, subcutaneous administration, increase in intragastric pressure over 40 minute period after dosing. As for the experimental part:
Intragastric pressure changes were recorded from previously starved conscious but retrained rats using a saline filled catheter inserted into the lumen of the stomach via a permanent gastric fistula. The catheter was connected to a physiological pressure transducer and pressure changes recorded on a hot wire pen recorder. In each animal a pre-dose period of 40 minutes was allowed to obtain a measure of spontaneous activity. An index of activity was obtained by measuring the average height of pressure waves during 10 minute periods. Values for 4 such periods were obtained during assessment of spontaneous activity and for the 40 minute period after the subcutaneous administration of the compounds. Students 't' test was applied to the difference in average values obtained for spontaneous and post-compound activity.

Experiment [2] has as its system mouse. The experiment is described as follows: Inhibition of apomorphine induced climbing in the mouse. The class given is in vivo. Particulars: sc, apomorphine 1 mg/kg s.c., compounds given subcutaneously, climbing scored at 10, 20 and 30 minutes, I + number = inactive at that dose. The protocol:
The test is based on that described by Protais, P., Constantin, J. and Schwartz, J.C.
Apomorphine 1 mg/kg s.c. induces mice to climb the wall of a wire cage (inverted food hopper - 11 x 7.5 x 18 cm high). Mice acclimatised in their home cages in groups of 5 are placed under the hoppers immediately after the injection of apomorphine 1 mg/kg s.c. At 10, 20 and 30 minutes after injection climbing behaviour is scored. The mice are observed for 30 seconds and scored according to the position in which they spend the majority of time, score O - four paws on floor of cage; score 1 - fore paws only on walls; score 2 - all paws on wall of cage. The scores at all 3 times and for each mouse are summed and mice drug treated subcutaneously compared to mice receiving apomorphine only.
Compounds were also tested for their ability to inhibit apomorphine induced climbing in the mouse.

Broadly, the ED50 is the midpoint of the dose-response relation. For `COc1cc(N)c(Cl)cc1C(=O)NC1CCN2CCCCN2C1` (racemic) [Example 2, (±) 4-Amino-5-chloro-2-methoxy-N-(3-{1,6-diazabicyclo [4,4,0]decyl}) benzamide], the minimal effective dose in experiment [1] (Rattus norvegicus, sc, 40 min, read-out: Dose mg/kg Subcutaneously (minimum dose for activity)) came to 1 mg/kg. Also, the median effective dose (ED50) in experiment [2] amounted to 110 mg/kg.
Regarding `COc1cc(N)c(Cl)cc1C(=O)NC1CN2CCC(c3ccccc3)CN2C1` (centres unmarked) [Example 8, 4-Amino-5-chloro-2-methoxy-N-(3-{7-phenyl-1,5-diaza-bicyclo[4,3,0]nonyl})benzamide], in experiment [2], the ED50 worked out at 4.5 mg/kg.
In the case of “(±) 4-Amino-5-chloro-2-methoxy-N-(7 or 8- {2-methyl-1,5-diazabicyclo[4,3,0]nonyl})benzamide [Example 14]”, the “Dose mg/kg Subcutaneously (minimum dose for activity)” value in experiment [1] is listed as 0.5 mg/kg.
The same measure, in the same setting: the value for “(±) 4-Amino-5-chloro-2-methoxy-N-(7 or 8-{2- methyl-1,5-diazabicyclo[4,3,0]nonyl})benzamide [Example 15]” was 1.0 mg/kg.
